Data on twelve compounds can be found in patent US20240408216A1, “PROTEIN INHIBITOR OR DEGRADING AGENT, PHARMACEUTICAL COMPOSITION CONTAINING SAME AND PHARMACEUTICAL USE” (JING MEDICINE TECHNOLOGY (SHANGHAI) LTD., priority 2021, published 2024).

Assay [1] deals with BaF3 (EGFR L858R/T790M/C797S). Description: Cell proliferation IC50 assay (Cell Titer GLO), BaF3 LTC cells. The assay is classed as cell-based. To be noted: Mus musculus, Ba/F3 EGFR, Table 6, 72 h. Here is the method:
(§1) IC50 of compounds in the present invention was determined by Cell Titer GLO reagent from Promega. The procedures are as follows:
(§2) Tumor cells were cultured in specified medium in an incubator at 37° C. and 5% CO2. The cells were passaged periodically. Cells at the logarithmic growth phase were collected for plating at a density of 2000-4000 cells/well. The next day, the compounds of the present invention were serially diluted and added to the cells, with DMSO being the negative control and the culture media without cells being the blank control. The plate was incubated in the incubator for 72 h. The cell viability assay was performed by adding the detection reagents to the cell culture media according to Cell Titer GLO reagent instructions and detecting luminescent signals on an EnVision microplate reader (PerkinElmer).
(§3) Inhibition of cell growth by the compounds of the present invention was plotted by Prism Graphpad software for statistically calculating the IC50 of the compound of the present invention.

The target in assay [2] is T1, BaF3 (EGFR Del19/C797S) (Homo sapiens, UniProt P00533, C797S, cells depend on it, form not given).
T1 construct: BaF3 (EGFR Del19/C797S)|DC|RPMI1640 + 10% FBS
Kind of assay: Cell proliferation IC50 assay (Cell Titer GLO), BaF3 DC cells. Format: cell-based, mouse. To be noted: Table 6, 72 h. As to the method:
as §1, §2, §3
On the technique in general: ATP-based viability assays read luminescence as a measure of living cells.

Assay [3] relates to BaF3 (EGFR WT). Kind of assay: Cell proliferation IC50 assay (Cell Titer GLO), BaF3 WT cells. Format: cell-based. The following applies: Mus musculus, Ba/F3 EGFR, Table 6, 10 ng/ml EGF, 72 h. Here is the method: as §1, §2, §3
Assay [4] deals with A431. Description: Cell proliferation IC50 assay (Cell Titer GLO), A431 cells. The assay is classed as cell-based. To be noted: Homo sapiens, A-431; Table 6; A431, 72 h; read-out: A431 IC50. As to the method:
as §1, §2, §3

Usually IC50 stands for the concentration needed to halve the response being measured.

T1 sequence (P00533 with tags, fused parts or gaps DEL746-750/C797S, form open): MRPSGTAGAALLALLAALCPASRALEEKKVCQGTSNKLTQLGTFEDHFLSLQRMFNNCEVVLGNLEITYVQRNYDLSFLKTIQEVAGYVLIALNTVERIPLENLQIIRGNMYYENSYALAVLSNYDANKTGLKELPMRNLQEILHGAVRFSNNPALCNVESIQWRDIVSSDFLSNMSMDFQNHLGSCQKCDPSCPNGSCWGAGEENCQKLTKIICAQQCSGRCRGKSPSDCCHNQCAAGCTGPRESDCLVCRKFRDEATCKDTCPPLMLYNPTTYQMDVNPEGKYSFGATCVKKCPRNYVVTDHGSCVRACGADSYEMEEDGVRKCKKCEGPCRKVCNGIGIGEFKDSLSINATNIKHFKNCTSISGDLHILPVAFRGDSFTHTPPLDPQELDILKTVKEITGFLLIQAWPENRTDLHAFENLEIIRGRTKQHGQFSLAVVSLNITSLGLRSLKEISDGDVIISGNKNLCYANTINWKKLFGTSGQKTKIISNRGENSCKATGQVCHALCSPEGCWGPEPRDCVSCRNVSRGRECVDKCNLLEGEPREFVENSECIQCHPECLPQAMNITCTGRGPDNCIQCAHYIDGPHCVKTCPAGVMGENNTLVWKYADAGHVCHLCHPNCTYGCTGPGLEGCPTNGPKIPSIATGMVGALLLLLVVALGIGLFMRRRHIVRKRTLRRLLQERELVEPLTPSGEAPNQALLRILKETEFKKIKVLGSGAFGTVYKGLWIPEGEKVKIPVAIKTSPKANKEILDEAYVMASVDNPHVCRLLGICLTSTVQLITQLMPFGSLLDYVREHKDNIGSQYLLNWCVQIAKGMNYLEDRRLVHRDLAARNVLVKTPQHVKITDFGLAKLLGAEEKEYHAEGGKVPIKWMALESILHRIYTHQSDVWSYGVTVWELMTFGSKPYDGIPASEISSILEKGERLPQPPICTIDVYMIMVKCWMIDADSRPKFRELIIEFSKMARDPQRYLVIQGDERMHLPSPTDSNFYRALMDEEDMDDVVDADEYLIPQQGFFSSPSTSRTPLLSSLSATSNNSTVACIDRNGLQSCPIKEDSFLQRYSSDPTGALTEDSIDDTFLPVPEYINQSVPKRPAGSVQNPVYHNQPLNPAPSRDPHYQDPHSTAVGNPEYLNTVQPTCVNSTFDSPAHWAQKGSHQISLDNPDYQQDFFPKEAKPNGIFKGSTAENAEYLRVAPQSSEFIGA

On to `CCc1cc(Nc2ncc(Cl)c(Nc3ccccc3P(C)(C)=O)n2)c(OC)cc1N1CCC(N2CCN(CCCCNc3cccc4c3CN(C3CCC(=O)NC3=O)C4=O)CC2)CC1` (stereo not drawn) [Example E119], for which the IC50 is 67.3 nM in assay [1], 5.6 nM in assay [2], over 4000 nM in assay [3] and 1400 nM in assay [4].
As for `CCc1cc(Nc2ncc(Cl)c(Nc3ccccc3P(C)(C)=O)n2)c(OC)cc1N1CCC(N2CCN([C@H]3C[C@H](Oc4ccc5c(c4)CN(C4CCC(=O)NC4=O)C5=O)C3)CC2)CC1` (stereo partly drawn) [Example E191], the IC50 stood at 69.2 nM in assay [1], 3.1 nM in assay [2], 947 nM in assay [3] and 1150 nM in assay [4].
The like results for `CCc1cc(Nc2ncc(Cl)c(Nc3ccccc3P(C)(C)=O)n2)c(OC)cc1N1CCC(N2CCN(C(=O)CCCOc3cccc4c3CN(C3CCC(=O)NC3=O)C4=O)CC2)CC1` (stereo not drawn) [Example E88] were, in that order, 59.9 nM, 9.1 nM, 2700 nM and 1610 nM.
In the case of `CCc1cc(Nc2ncc(Cl)c(Nc3ccccc3P(C)(C)=O)n2)c(OC)cc1N1CCC(N2CCN(CCCCCc3cccc4c3CN(C3CCC(=O)NC3=O)C4=O)CC2)CC1` (stereo not drawn) [Example E39], the IC50 in assay [1] came to 19.2 nM; in assay [2] it was 4.2 nM; in assay [3], 250 nM; in assay [4] it was 928 nM.
The like results for `CCc1cc(Nc2ncc(-n3ccnn3)c(Nc3ccccc3P(C)(C)=O)n2)c(OC)cc1N1CCC(N2CCN(CCOc3ccc4c(c3)CN(C3CCC(=O)NC3=O)C4=O)CC2)CC1` (stereo not drawn) [Example E220] were, in that order, over 4000 nM, 4 nM, over 4000 nM and over 4000 nM.
Taken in the same sequence, the figures for `CCc1cc(Nc2ncc(Cl)c(Nc3ccccc3P(C)(C)=O)n2)cc(C#N)c1N1CCC(N2CCN(CCC#Cc3cccc4c3CN(C3CCC(=O)NC3=O)C4=O)CC2)CC1` (stereo not drawn) [Example E94] were 57 nM, 40.2 nM, 50.6 nM and 524 nM.
Taken in the same sequence, the figures for `CCc1cc(Nc2ncc(Cl)c(Nc3ccccc3P(C)(C)=O)n2)c(OC)cc1N1CCC(N2CCC3(CC(Oc4cccc5c4CN(C4CCC(=O)NC4=O)C5=O)C3)C2)CC1` (stereo not drawn) [Example E83] were 18 nM, 1.2 nM, 1450 nM and 1470 nM.
As to `CCc1cc(Nc2ncc(-c3nc(C)no3)c(Nc3ccccc3P(C)(C)=O)n2)c(OC)cc1N1CCC(N2CCN(CCOc3cccc4c3CN(C3CCC(=O)NC3=O)C4=O)CC2)CC1` (stereo not drawn) [Example E149], the IC50 in assay [1] is 3480 nM; in assay [2] it was 37.2 nM; in assay [3] it was 1290 nM; in assay [4] it was over 4000 nM.
Taken in the same sequence, the figures for `CCc1cc(Nc2nc(Nc3ccccc3P(C)(C)=O)c3cn[nH]c3n2)c(OC)cc1N1CCC(N2CCN(CCOc3cc4c(cc3F)C(=O)N(C3CCC(=O)NC3=O)C4)CC2)CC1` (stereo not drawn) [Example E208] were 532 nM, 16.1 nM, 1010 nM and 1350 nM.
In the case of `CCc1cc(Nc2ncc(Cl)c(Nc3ccccc3P(C)(C)=O)n2)c(OC)cc1N1CCC2(CCN(CCCCOc3cccc4c3CN(C3CCC(=O)NC3=O)C4=O)CC2)CC1` (stereo not drawn) [Example E47], the IC50 was 36.9 nM in assay [1], 9.5 nM in assay [2], 461 nM in assay [3] and over 4000 nM in assay [4].
The like results for `COc1cc(N2CCC3(CCN(CCCC#Cc4cccc5c4CN(C4CCC(=O)NC4=O)C5=O)CC3)CC2)c(C2CC2)cc1Nc1ncc(Cl)c(Nc2ccccc2P(C)(C)=O)n1` (stereo not drawn) [Example E62] were, in that order, 96.1 nM, 51.1 nM, over 4000 nM and over 4000 nM.
Taken in the same sequence, the figures for `CCc1cc(Nc2ncc(Cl)c(Nc3ccccc3P(C)(C)=O)n2)c(OC)cc1N1CCC(N2CCN(CCCCOc3cc4c(cc3F)C(=O)N(C3CCC(=O)NC3=O)C4)CC2)CC1` (stereo not drawn) [Example E92] were 72.6 nM, 12.7 nM, 692 nM and 1170 nM.
